The source made the active and inactive calls.

A short description of experiment [1]: inhibitors of SNCA 5'UTR-driven reporter translation, confirmation, H4 neuroglioma cells, luminescence (AID 1988). It is filed as functional, cell-based.
Experiment [2] relates to Vero. Nature of the experiment: cells. The note with it: Chlorocebus sabaeus. It is filed as functional.
Experiment [3] concerns Vero. Description: host cell cytotoxicity of antiviral hits, dose response, cytotoxicity control for West Nile virus antiviral project, secondary assay (AID 1650). In kind it is functional. The note with it: Chlorocebus sabaeus.
For experiment [4], the system named is Vero. Description: West Nile virus antiviral activity, cell-based, CPE readout (AID 1621). It is filed as functional. The conditions noted are these: Chlorocebus sabaeus.
Experiment [5] can be described thus: inhibitors of firefly luciferase expression or activity, dose response, H4 neuroglioma cells, luminescence (AID 1990). In kind it is functional, cell-based.
Experiment [6] is described as follows: Luminescence Cell-Based Dose Response HTS to Identify Inhibitors of 5'UTR Stem-Loop Driven Prion Protein mRNA Translation in H4 Neuroglioblastoma Cells. [Related pubchem assays: 1827 (Project Summary), 1813 (Primary HTS)]. It is filed as functional.
The next experiment addresses Prothrombin (Homo sapiens, UniProt P00734). Nature of the experiment: Thrombin 1536 HTS Dose Response Confirmation. [Related pubchem assays: 1046 (Thrombin 1536 HTS; hits were confirmed in this assay)]. It is filed as functional.
The next experiment has as its target Protein Tat (Human immunodeficiency virus type 1 group M subtype B (isolate HXB2)(HIV-1), UniProt P04608). It is filed as functional.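 Note: tat binding to TAR RNA read out by fluorescence polarization.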
Experiment [7] in a line: Vero cell cytotoxicity, dose response, cytotoxicity control for Vif-APOBEC3G degradation inhibitor project, Vero cells (AID 1117358). The conditions noted are these: Human immunodeficiency virus 1, Vero. It is filed as functional.
The target of experiment [8] is Glutathione-S-transferase (Schistosoma japonicum, UniProt Q26513). Nature of the experiment: biotin-GST/anti-GST TR-FRET signal inhibitors, dose response, artefact control for Vif-APOBEC3G degradation inhibitor project, biochemical (AID 1117362). In kind it is functional. In general terms: In TR-FRET formats the signal depends on donor and acceptor labels being close together.
Chain of Glutathione-S-transferase (Q26513 whole entry): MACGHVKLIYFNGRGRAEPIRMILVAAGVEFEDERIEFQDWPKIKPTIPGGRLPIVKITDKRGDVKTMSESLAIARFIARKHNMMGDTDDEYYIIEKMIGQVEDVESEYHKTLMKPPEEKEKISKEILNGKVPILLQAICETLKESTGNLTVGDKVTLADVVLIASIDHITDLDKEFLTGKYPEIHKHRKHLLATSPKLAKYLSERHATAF

A further experiment deals with T1, Aminopeptidase N (Plasmodium falciparum FcB1/Columbia, UniProt O96935).
T1 sequence (O96935 whole entry): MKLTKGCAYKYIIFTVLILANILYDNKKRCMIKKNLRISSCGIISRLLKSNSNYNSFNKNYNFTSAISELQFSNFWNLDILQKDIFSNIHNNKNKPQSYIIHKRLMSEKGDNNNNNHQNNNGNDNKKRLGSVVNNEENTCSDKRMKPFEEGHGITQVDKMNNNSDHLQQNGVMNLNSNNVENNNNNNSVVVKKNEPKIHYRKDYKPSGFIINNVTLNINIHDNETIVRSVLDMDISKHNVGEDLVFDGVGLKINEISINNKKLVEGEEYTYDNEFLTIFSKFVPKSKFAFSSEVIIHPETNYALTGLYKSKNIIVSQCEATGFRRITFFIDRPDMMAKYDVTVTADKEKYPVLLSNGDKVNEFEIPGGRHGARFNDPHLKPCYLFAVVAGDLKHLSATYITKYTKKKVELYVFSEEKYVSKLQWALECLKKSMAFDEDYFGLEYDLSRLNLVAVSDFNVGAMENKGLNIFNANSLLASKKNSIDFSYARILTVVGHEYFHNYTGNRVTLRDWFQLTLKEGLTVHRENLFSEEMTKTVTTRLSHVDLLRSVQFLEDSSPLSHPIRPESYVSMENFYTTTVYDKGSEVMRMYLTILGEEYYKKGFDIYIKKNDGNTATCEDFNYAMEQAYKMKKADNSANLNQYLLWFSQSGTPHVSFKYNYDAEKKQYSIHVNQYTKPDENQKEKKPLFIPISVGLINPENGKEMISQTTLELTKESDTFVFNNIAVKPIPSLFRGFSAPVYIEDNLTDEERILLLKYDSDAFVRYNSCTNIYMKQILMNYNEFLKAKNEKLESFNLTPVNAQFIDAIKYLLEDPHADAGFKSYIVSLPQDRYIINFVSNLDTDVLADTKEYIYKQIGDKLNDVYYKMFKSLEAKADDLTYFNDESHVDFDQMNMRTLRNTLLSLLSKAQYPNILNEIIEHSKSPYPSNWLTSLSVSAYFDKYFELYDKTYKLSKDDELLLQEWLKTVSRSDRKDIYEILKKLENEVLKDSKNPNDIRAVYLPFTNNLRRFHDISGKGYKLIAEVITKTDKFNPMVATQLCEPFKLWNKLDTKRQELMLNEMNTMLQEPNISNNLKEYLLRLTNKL
Nature of the experiment: P. falciparum M1AAP inhibitors, biochemical, fluorogenic H-Leu-NHMec substrate, 1536-well (AID 1445). Set-up: species or system Plasmodium falciparum 3D7, 3D7.

Experiment [9] concerns the target T2, Microphthalmia-associated transcription factor (Homo sapiens, UniProt O75030).
T2 sequence (O75030 whole entry): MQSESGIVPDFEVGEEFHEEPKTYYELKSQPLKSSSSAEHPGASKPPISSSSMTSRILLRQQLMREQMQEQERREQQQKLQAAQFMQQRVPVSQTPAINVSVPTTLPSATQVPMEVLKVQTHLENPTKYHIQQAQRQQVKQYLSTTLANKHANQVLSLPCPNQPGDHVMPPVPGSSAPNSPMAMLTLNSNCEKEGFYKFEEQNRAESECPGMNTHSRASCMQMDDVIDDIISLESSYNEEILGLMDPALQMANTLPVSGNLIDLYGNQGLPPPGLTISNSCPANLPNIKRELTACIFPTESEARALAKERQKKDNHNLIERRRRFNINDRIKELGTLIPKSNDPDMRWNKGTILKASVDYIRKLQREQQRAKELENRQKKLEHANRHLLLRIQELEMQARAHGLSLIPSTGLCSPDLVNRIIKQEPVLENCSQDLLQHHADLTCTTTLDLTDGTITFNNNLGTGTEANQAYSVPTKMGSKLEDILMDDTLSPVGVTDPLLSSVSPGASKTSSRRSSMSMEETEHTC
Nature of the experiment: TRPM1 promoter luciferase signal decrease, dose response, MITF inhibitor project, cell-based, SK-MEL-5, cherry-picked, set 3 (AID 493073).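 Note: SK-MEL-5 melanoma cells with luciferase driven by the MITF target TRPM1 promoter.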 In kind it is functional.

Experiment [10] can be described thus: Luminescence Cell-Based Dose Retest to Confirm Inhibitors of Cancer Stem Cells. [Related pubchem assays (depositor defined):AID2717, AID2721]. It is filed as functional. The conditions noted are these: Homo sapiens.
The test system of another experiment is H4. Description: Luminescence Cell-Based Dose Response HTS to Identify Activators of 5'UTR Stem-Loop Driven Prion Protein mRNA Translation in H4 Neuroglioblastoma Cells. [Related pubchem assays: 1829 (Project Summary), 1814 (Primary HTS)]. The conditions noted are these: Homo sapiens. In kind it is functional.
Experiment [11] can be described thus: Luminescence Cell-Based Dose Response HTS to Identify Activators of Luciferase Translation or Activity in H4 […] Cells. [Related pubchem assays: 1829 (Project Summary), 1814 (Primary HTS)]. It is filed as functional.
A short description of experiment [12]: Luminescence Cell-Based Dose Confirmation HTS to Identify Activators of 5'UTR Stem-Loop Driven Alpha-Synuclein mRNA Translation in H4 Neuroglioblastoma Cells. [Related pubchem assays: 1829 (Project Summary), 1814 (Primary HTS)]. It is filed as functional.
Experiment [13] can be described thus: inhibitors of clade B AD8 Env fusion, dose response, cell-based, cherry-pick (AID 652062).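 Note: luciferase signal from cell-cell fusion driven by HIV-1 clade B AD8 Env; potency is for inhibitors of fusion seen as a drop in luminescence.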 It is filed as functional.
Experiment [14] has as its target Mitogen-activated protein kinase 10 (Homo sapiens, UniProt P53779). Description: Dose response biochemical screening assay for inhibitors of c-Jun N-Terminal Kinase 3 (JNK3). [Related pubchem assays: 746 ].
Experiment [15] can be described thus: ZM109 Env clade C HIV-1 fusion inhibitors, dose response, HeLa effector, CEM target cells, luciferase, cherry-pick (AID 652058). In kind it is functional, cell-based.
Experiment [16] is described as follows: half-maximal inhibitory concentration for glucagon-like peptide-1 release, STC-1 cell line, dose-response (AID 1117345). It is filed as functional, cell-based.
Experiment [17] concerns the target T3, Ubiquitin-conjugating enzyme E2 N (Homo sapiens, UniProt P61088).
T3 sequence (P61088 whole entry): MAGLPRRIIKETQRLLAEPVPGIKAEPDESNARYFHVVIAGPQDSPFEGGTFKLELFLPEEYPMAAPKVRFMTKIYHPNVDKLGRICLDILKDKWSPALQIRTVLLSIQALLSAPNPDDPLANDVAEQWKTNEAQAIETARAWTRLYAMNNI
In kind it is functional.

Experiment [18] deals with T3, Ubiquitin-conjugating enzyme E2 N. In kind it is functional. The source holds these as a separate data set.
Experiment [19] in a line: cytotoxicity in HPDE-C7 cells, cell-based, fluorescence, HTS (AID 430). In kind it is functional. The conditions noted are these: Homo sapiens.
Experiment [20] is described as follows: Glucagon-like peptide 1 release potency, NCI-H716 cell line, dose-response, half-maximal inhibitory concentration (AID 1117344). In kind it is functional, cell-based.
The next experiment deals with T4, Bcl-2-related protein A1 (Mus musculus, UniProt Q07440).
T4 sequence (Q07440 whole entry): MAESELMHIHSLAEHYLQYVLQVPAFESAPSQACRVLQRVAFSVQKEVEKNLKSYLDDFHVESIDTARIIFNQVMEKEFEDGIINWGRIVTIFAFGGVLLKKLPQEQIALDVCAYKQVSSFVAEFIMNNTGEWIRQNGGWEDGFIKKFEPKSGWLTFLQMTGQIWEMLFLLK
It is filed as functional.

For a further experiment, the target named is T5, NADPH oxidase 1 (Homo sapiens, UniProt Q9Y5S8).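 Note: Cell-based assay with luminescence read-out, IC50 derived from inhibitor dose-response curves; intracellular ROS from endogenous NOX1 in intact HT29 colon cancer cells; potency of inhibitors that lower the ROS luminescence signal.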
T5 sequence (Q9Y5S8 whole entry): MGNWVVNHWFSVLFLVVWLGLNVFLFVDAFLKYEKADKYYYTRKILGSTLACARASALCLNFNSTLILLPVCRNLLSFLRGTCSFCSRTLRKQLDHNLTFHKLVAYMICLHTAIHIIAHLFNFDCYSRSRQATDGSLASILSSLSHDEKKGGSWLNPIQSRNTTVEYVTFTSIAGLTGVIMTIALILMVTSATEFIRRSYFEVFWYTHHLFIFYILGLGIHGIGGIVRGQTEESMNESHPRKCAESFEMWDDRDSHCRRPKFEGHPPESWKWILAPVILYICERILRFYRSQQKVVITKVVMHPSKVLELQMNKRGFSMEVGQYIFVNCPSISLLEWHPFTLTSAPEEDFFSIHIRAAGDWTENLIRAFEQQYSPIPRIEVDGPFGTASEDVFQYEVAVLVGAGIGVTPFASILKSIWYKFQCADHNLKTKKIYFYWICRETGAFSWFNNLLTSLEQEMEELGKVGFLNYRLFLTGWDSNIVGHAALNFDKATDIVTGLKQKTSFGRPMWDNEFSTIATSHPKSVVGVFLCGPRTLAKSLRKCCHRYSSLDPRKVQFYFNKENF
It is filed as functional, cell-based.

Experiment [21] can be described thus: cytotoxicity in KRAS-transformed pancreatic duct cells, primary screen, cell-based, fluorescence, HTS (AID 431). In kind it is functional. The conditions noted are these: Homo sapiens.

Chain of Mitogen-activated protein kinase 10 (P53779 whole entry, the tested form may be a part): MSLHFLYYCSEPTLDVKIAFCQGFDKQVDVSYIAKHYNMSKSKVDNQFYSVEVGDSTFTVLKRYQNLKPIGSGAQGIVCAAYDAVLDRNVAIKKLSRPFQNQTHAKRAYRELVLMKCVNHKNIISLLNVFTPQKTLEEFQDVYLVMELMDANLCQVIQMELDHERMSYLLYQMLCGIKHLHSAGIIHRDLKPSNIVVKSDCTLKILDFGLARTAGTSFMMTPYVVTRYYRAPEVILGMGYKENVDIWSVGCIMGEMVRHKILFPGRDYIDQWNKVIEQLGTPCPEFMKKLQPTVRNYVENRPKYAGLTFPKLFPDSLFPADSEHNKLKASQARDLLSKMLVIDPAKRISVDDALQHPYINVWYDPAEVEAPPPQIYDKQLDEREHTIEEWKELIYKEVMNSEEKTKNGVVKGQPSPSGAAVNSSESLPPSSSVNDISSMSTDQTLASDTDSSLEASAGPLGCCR
Chain of Protein Tat (P04608 whole entry): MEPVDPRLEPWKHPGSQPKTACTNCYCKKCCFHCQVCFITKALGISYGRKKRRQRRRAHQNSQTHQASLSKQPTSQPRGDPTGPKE

Usually EC50 stands for the concentration giving half of the maximal effect. One may read the CC50 as the concentration at which the toxic effect on the cells reaches its halfway point. As usually defined, the IC50 is the concentration at which inhibition is half-maximal. As for `COc1ccc(C2c3ccc4ccccc4c3Oc3ncn(CCN4CCOCC4)c(=N)c32)cc1OC` (configuration not stated), the EC50 is 9.75 µM (active) in [1], > 120 µM (not active) in experiment [5] and 33.4 µM (active) in [6]. For the same molecule, the values for the CC50 in the experiment on Vero [2] and in the experiment on Vero [3] were 23.8 µM (active) and > 100 µM (active), respectively. Further, the IC50 in the experiment with Vero [4] was 31.4 µM (active).
As for `Clc1ccc2oc(-c3ccccc3)cc(=NCCCN3CCOCC3)c2c1`, the IC50 at Prothrombin was 24.2 µM (active).
On to `CCCCn1cnc2cc(NCc3ccncc3)ccc21`, for which the half-inhibitory concentration (IC50) (at Protein Tat; in experiment [8]) was > 100 µM (active) throughout. Also, in experiment [7], the CC50 was > 40 µM (active).
With `COc1ccccc1C1C=C(c2ccc(Cl)cc2)Nc2nc(N3C(=O)CCC3=O)nn21` (configuration not stated), the half-maximal inhibitory concentration (IC50) at Aminopeptidase N is 31.3 µM (active); at Prothrombin it was 5.84 µM (active).
With `Cc1noc(/C=C/c2ccco2)c1S(=O)(=O)N1CCC(C(=O)NCc2ccco2)CC1`, the CC50 in experiment [7] was > 40 µM (active).
For orientation: AC50 means the concentration giving half of the maximal activity seen. With `C=C1C(=O)C=C[C@]2(C)C[C@@H]3OC(=O)[C@](C)(O)[C@H]3C[C@@H]12`, the AC50 in experiment [9] was 10.3 µM (active); in experiment [10] it was 4.35 µM (active). Moreover, the EC50 in the experiment with H4 is 0.887 µM (active); in [11], 0.153 µM (active); in experiment [12], 0.106 µM (active). For the same molecule, the CC50 in the experiment on Vero [3] is 10.8 µM (active). Also, the IC50 with Vero [4] was 24.7 µM (active).
Take `N#Cc1c(NCc2ccccc2)ccnc1NCc1cccnc1`: the AC50 in experiment [13] is 5.44 µM (active); in experiment [15], 0.861 µM (active). Besides, in experiment [14], the IC50 was 3.96 µM (active).
Consider `c1ccc2nc3c(nc2c1)c1ccccc1n3CCN1CCOCC1`, for which the IC50 in experiment [14] is listed as > 93.1 µM (not active).
`OCCN1CCN(CCCN2c3ccccc3Sc3ccc(Cl)cc32)CC1` [PERPHENAZINE]: the IC50 in [16] was 15.5 µM (inactive); in [17], 16.2 µM (active); in experiment [18], 13.4 µM (active); in [20], 7.37 µM (inactive); at Bcl-2-related protein A1, > 20 µM (inactive); on NADPH oxidase 1 it was > 17 µM (not active). In addition, the figures for the EC50 in experiment [19] and in experiment [21] were 10.4 µM (active) and 10.5 µM (active), respectively.
